Source: patent US9925235B2, “Tilapia piscidins for use in enhancement of wound healing” (Academia Sinica, priority 2015, dated 2018)
Peptide text beside a SMILES is read from it.

Key:
[1] = tested on: MRSA; conditions: 24 h
[2] = In vivo toxicity of TP3, intramuscular injection, blood biochemistry; conditions: mice, i.m. 2 mg/mouse
Experimental: To determine the toxicity of TP3, TP3 was dissolved in phosphate-buffered saline (PBS; pH 7.4) and administered as intramuscular bolus injections in the left thigh (2 mg/mouse). […] To study the effect of treatment on biochemistry, mice (n=6 in each group) were treated with PBS (control). Blood samples (0.2 ml) were collected day 1, 3 and 6 after the final injection of TP3, and used to determine the serum levels of glutamic oxaloacetic transaminase (GOT), glutamic pyruvic transaminase (GPT), blood urea nitrogen (BUN), creatinine (CRE), total glucose (GLU), and creatine phosphokinase (CPK).

[3] = tested on: MRSA; assay: Mouse model of MRSA sepsis, TP4; assay type: in vivo, Balb/c mice; conditions: for Mean ± SD count, Blood / Mean ± SD count, Liver / Mean ± SD count, Mesenteric lymph nodes / Mean ± SD count, Peritoneum / Mean ± SD count, Spleen: 48 hours after the last treatment; for survival rate: 8 days after MRSA infection, i.p. 10 min after MRSA, TP4 0.005 mg/g, vancomycin and methicillin 0.01 mg/g; for % lethality: monitored for 2 day after injection, MRSA 10^6 CFU i.p.
Experimental: (§1) Female Balb/c mice (6-8 weeks old) were injected intraperitoneally with 10^6 CFU MRSA per mouse. Ten minutes after MRSA injection, mice were injected intraperitoneally with vancomycin (0.01 mg/g mouse body weight), methicillin (0.01 mg/g mouse body weight), or TP4 (0.005 mg/g mouse body weight). In a second set of experiments, mice were given intraperitoneal injections of TP4 (0.005 mg/g mouse body weight) at 10, 60, 120, or 180 min after MRSA injection. Survival rate and status were recorded every 24 h for up to 192 h. To examine bacterial dissemination, mice were sacrificed at 48 h after injection with antibiotics or TP4, and the bacterial numbers in blood, peritoneum, spleen, liver, and mesenteric lymph nodes were recorded. Colony counts from the diluted bacterial solutions were expressed relative to those at the start of treatment. These experiments consisted of four groups, and each group contained 10 mice.
Infected mice were untreated, or treated with TP4, methicillin, or vancomycin via i.p. injection. Bacterial numbers in blood, peritoneum, spleen, liver, and mesenteric lymph nodes were subsequently recorded. Colony counts from the diluted bacterial solutions are expressed relative to those at the start of treatment. Each value represents the mean value from three determinations±standard deviation (SD).

[4] = tested on: MRSA; assay: Mouse wound healing model, wound closure and microbial load, TP3; assay type: in vivo, Balb/c mice
Experimental: Female Balb/c mice (6-8 weeks old) were used for wound healing experiments. All mice were housed individually to prevent fighting and further damage to the wounds, and they were provided with food and water ad libitum. Mice were maintained on a 12 h light: dark cycle at room temperature, and acclimatized to the environment for at least a week before use in experiments. All researchers wore caps, sterile gloves, gowns, and shoe covers when handling mice. Hair was removed from the back of the mice by shaving, and a full thickness wound (1 cm in diameter) was then created in the exposed region. Each wound was inoculated with 50 μl of broth mix containing 10^6 cfu (colony forming units) of S. aureus. At 5 min after inoculation, 50 μl TP3 (2 mg/ml) in a total volume of 0.1 ml were applied. Thirty minutes after treatment, wounds were covered with Tegaderm (3M, St. Paul, Minn.) to maintain uniformity, and to prevent the mice from removing the treatments. Based on initial experiments, we examined the wounds at 0, 3, 5 and 19 days post-injury, so as not to disturb the infection. Such examinations captured the transitions from inflammatory to regenerative, and regenerative to resolving phases of wound healing. Animals were subsequently euthanized by CO2 inhalation and the wounds assessed. Four individuals in each group were examined at each time point for each experiment. Each wound was measured and then removed from the animal, with unwounded skin taken from the contralateral dorsum as a control. Each biopsy was bisected with three sections being used for tensiometry and histology, and two sections for quantitative determination of microbial load. Wound healing studies were repeated in triplicate.
Tracings were taken immediately after injury. For uncontaminated wounds, wound size was determined every second day. For contaminated wounds, mice were euthanized at days 3, 5, 19 and tracings of the wound edges were made. Wound areas were determined using the Macintosh Adobe Photoshop program, Histogram Analysis. The percentage of wound contraction was calculated as follows: % Wound contraction=(A0−At)/A0×100, where A0 is the original wound area, and At is the area of wound at the time of biopsy on every two days, accordingly.
Multidrug-resistant strains of Staphylococcus aureus commonly associated with human wound infections were selected to generate a polymicrobial solution. The MRSA strain is a clinical isolate from stool obtained from Taipei City Hospital (Heping Fuyou branch). The initial inoculum was prepared by culturing aerobic bacteria in Tryptic Soy Broth (TSB) overnight at 37° C. Broths were subsequently centrifuged at 1000 rpm for 15 min, and resuspended in TSB with 15% glycerol, or chopped meat extract with 15% glycerol (for aerobic bacteria). The concentration was adjusted to 10^6 cfu/50 μl, and stored at −80° C. Prior to wound application, […]

[5] = tested on: MRSA; assay: Mouse model of MRSA sepsis, TP3; assay type: in vivo, Balb/c mice; conditions: for Mean ± SD count, Blood / Mean ± SD count, Liver / Mean ± SD count, Mesenteric lymph nodes / Mean ± SD count, Peritoneum / Mean ± SD count, Spleen: 48 h after injection; for survival rate: 8 days after MRSA infection, i.p. 10 min after MRSA, TP3 0.005 mg/g, vancomycin and methicillin 0.01 mg/g; for % lethality: monitored for 2 day after injection, MRSA 1 × 10^6 CFU i.p.
Experimental: as §1, with “weight), methicilin” for “weight), methicillin”, “or TP3” for “or TP4”, “of TP3” for “of TP4”, “injection. The survival” for “injection. Survival”, “or TP3,” for “or TP4,”, “contained 5” for “contained 10”

[6] = tested on: MRSA; assay: Histology and IHC of wound tissue, TP3; assay type: in vivo, Balb/c mice; conditions: wounds
Experimental: Skin tissues were removed and fixed as previously described. In brief, the cryosections were fixed with 4% formaldehyde, and the tissue samples were stained with hematoxylin/eosin, Giemsa, or Gram stain. IHC was analyzed by three independent investigators. Images were taken using a BX-51 microscope (Olympus, Japan).

Row | SMILES | Mean ± SD count, Blood [3] | Mean ± SD count, Liver [3] | Mean ± SD count, Mesenteric lymph nodes [3] | Mean ± SD count, Peritoneum [3] | Mean ± SD count, Spleen [3] | survival rate [3] [%] | % lethality [3] | Bacterial Count ([4]; day 0) | Bacterial Count ([4]; day 5) | Mean ± SD count, Blood [5] | Mean ± SD count, Liver [5] | Mean ± SD count, Mesenteric lymph nodes [5] | Mean ± SD count, Peritoneum [5] | Mean ± SD count, Spleen [5] | survival rate [5] [%] | % lethality [5] | other results
1 | CC[C@H](C)[C@H](NC(=O)[C@H](CC(C)C)NC(=O)[C@H](CO)NC(=O)[C@H](Cc1c[nH]cn1)NC(=O)[C@@H](NC(=O)[C@H](Cc1c[nH]cn1)NC(=O)[C@H](CCCCN)NC(=O)CNC(=O)[C@@H](NC(=O)[C@H](CO)NC(=O)[C@H](Cc1ccccc1)NC(=O)[C@H](CC(C)C)NC(=O)CNC(=O)CNC(=O)[C@@H](NC(=O)[C@@H](NC(=O)[C@H](Cc1c[nH]cn1)NC(=O)[C@H](Cc1c[nH]cn1)NC(=O)[C@@H](NC(=O)[C@@H](N)Cc1ccccc1)[C@@H](C)CC)[C@@H](C)CC)[C@@H](C)CC)C(C)C)[C@@H](C)CC)C(=O)N[C@@H](Cc1c[nH]cn1)C(=O)NCC(=O)N[C@@H](Cc1c[nH]cn1)C(=O)O [TP3, Tilapia piscidin 3] (H-FIHHIIGGLFSVGKHIHSLIHGH-OH) |  |  |  |  |  |  |  |  |  |  |  |  |  |  |  |  | minimal inhibitory concentration (MIC) [1]: > 3.9 µg/mL; BUN ([2]; day 1): 15.2 ± 2.4^A mg/dl; CPK ([2]; day 1): 114 ± 21.9^A U/l; GLU ([2]; day 1): 258.6 ± 28.2^AB mg/dl; GOT ([2]; day 1): 122.6 ± 25.7^C U/l; GPT ([2]; day 1): 71.3 ± 8.6^C U/l; BUN ([2]; day 3): 17.4 ± 2.3^A mg/dl; CPK ([2]; day 3): 88.3 ± 5.8^B U/l; GLU ([2]; day 3): 219.8 ± 8.2^A mg/dl; GOT ([2]; day 3): 47.3 ± 5.9^A U/l; GPT ([2]; day 3): 36.2 ± 2.7^AB U/l; BUN ([2]; day 6): 20.2 ± 1.8^AB mg/dl; CPK ([2]; day 6): 129 ± 15.3^AB U/l; GLU ([2]; day 6): 290.8 ± 53.5^B mg/dl; GOT ([2]; day 6): 46 ± 8.08^A U/l; GPT ([2]; day 6): 35 ± 5.9^AB U/l
2 | COc1cccc(OC)c1C(=O)N[C@@H]1C(=O)N2[C@@H]1SC(C)(C)[C@@H]2C(=O)O [methicillin] | 4.1 × 10^7 ± 1.3 × 10^7B CFU/mL | 2.7 × 10^8 ± 3.3 × 10^8B CFU/mL | 4.1 × 10^7 ± 3 × 10^7C CFU/mL | 2.3 × 10^9 ± 2 × 10^9B CFU/mL | 1.5 × 10^8 ± 2.1 × 10^7B CFU/mL | 0 | 20^B % | 5.2 × 10^4 CFU/10 μl | Fatal | 5.8 × 10^7 ± 1.7 × 10^7B CFU/ml | 3.7 × 10^8 ± 8.1 × 10^7B CFU/ml | 6.4 × 10^7 ± 5.3 × 10^7B CFU/ml | 4.9 × 10^9 ± 2.2 × 10^9B CFU/ml | 9.5 × 10^8 ± 1.9 × 10^8B CFU/ml | 0 | 20^B % | 
3 | CN[C@H](CC(C)C)C(=O)N[C@H]1C(=O)N[C@@H](CC(N)=O)C(=O)N[C@H]2C(=O)N[C@H]3C(=O)N[C@H](C(=O)N[C@H](C(=O)O)c4cc(O)cc(O)c4-c4cc3ccc4O)[C@H](O)c3ccc(c(Cl)c3)Oc3cc2cc(c3O[C@@H]2O[C@H](CO)[C@@H](O)[C@H](O)[C@H]2O[C@H]2C[C@](C)(N)[C@H](O)[C@H](C)O2)Oc2ccc(cc2Cl)[C@H]1O [vancomycin] | 8 × 10^4 ± 1.1 × 10^4B CFU/mL | 1.3 × 10^7 ± 1.8 × 10^3B CFU/mL | 1 × 10^7 ± 4 × 10^4B CFU/mL | 1.5 × 10^6 ± 1 × 10^3A CFU/mL | 1.4 × 10^7 ± 1.1 × 10^4B CFU/mL | 80 | 10^AB % | 4.9 × 10^4 CFU/10 μl | 2.6 × 10^3 CFU/10 μl | 8 × 10^3 ± 1.3 × 10^5B CFU/ml | 1.7 × 10^8 ± 3.8 × 10^7B CFU/ml | 2 × 10^8 ± 4.4 × 10^6A CFU/ml | 2.7 × 10^9 ± 1.5 × 10^9A CFU/ml | 1.8 × 10^3 ± 8.4 × 10^7B CFU/ml | 80 | 0^A % | Bacterial Count ([4]; day 3): 3 × 10^5 CFU/10 μl; Bacterial Count ([4]; day 19): 42 CFU/10 μl; overall epidermal maturation compared to the TP3 group [6]: displayed impairment in overall epidermal maturation
